pIC50: −log10 of the molar value.
These molecules were tested against catalytic domain of human Bub1 (amino acids 704-1085) (Homo sapiens (Human), UniProt O43683) (assay: Bub1 kinase assay (TR-FRET)). Settings: 10 μM ATP, 1 μM peptide substrate; read-out: Biological Assay 1: Bub1 kinase assay median IC50.
Format: biochemical
Description: To this end, 100-fold concentrated compound solutions (in DMSO) were previously prepared by serial dilution (1:3.4) of 2 mM stocks in a clear low volume 384-well source microtiter plate (Greiner Bio-One, Frickenhausen, Germany), from which 50 nl of compounds were transferred into a black low volume test microtiter plate from the same supplier. […] The resulting mixture (5 μl final volume) was incubated at 22° C. during 60 min., and the reaction was stopped by the addition of 5 μl of an aqueous EDTA-solution (50 mM EDTA, in 100 mM HEPES pH 7.5 and 0.2% (w/v) bovine serum albumin) which also contained the TR-FRET detection reagents (0.2 μM streptavidin-XL665 [Cisbio Bioassays, Codolet, France] and 1 nM anti-phosho-Serine antibody [Merck Millipore, cat. #35-001] and 0.4 nM LANCE EU-W1024 labeled anti-mouse IgG antibody [Perkin-Elmer, product no. AD0077, alternatively a Terbium-cryptate-labeled anti-mouse IgG antibody from Cisbio Bioassays can be used]). The stopped reaction mixture was further incubated 1 h at 22° C. in order to allow the formation of complexes between peptides and detection reagents. Subsequently, the amount of product was evaluated by measurement of the resonance energy transfer from the Eu-chelate-antlbody complex recognizing the Phosphoserlne residue to the streptavidin-XL665 bound to the biotin moiety of the peptide. […] IC50 values were calculated by fitting the normalized inhibition data to a 4-parameter logistic equation (Minimum, Maximum, IC50, Hill; Y=Max+(Min−Max)/(1+(X/IC50)Hill)) using a Bayer-proprietary analysis software.

Chain of catalytic domain of human Bub1 (amino acids 704-1085) (O43683 704-1085): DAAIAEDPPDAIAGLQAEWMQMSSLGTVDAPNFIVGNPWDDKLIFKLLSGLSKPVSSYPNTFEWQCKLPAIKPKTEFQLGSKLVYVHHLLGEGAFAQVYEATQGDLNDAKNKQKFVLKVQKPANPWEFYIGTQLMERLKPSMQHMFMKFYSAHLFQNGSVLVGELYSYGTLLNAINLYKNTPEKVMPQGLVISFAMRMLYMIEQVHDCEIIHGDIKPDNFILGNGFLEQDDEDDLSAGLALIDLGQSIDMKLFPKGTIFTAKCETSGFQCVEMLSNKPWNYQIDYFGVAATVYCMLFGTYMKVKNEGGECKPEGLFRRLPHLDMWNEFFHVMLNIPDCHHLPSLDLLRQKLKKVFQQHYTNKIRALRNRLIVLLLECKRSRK

SMILES | pIC50
COc1cnc(-c2nn(Cc3cccc(-n4cccc4)c3)c3ccccc23)nc1Nc1ccncc1 [Example 2-1-3, 5-methoxy-N-(pyridin-4-yl)-2-{1-[3-(1H-pyrrol-1-yl)benzyl]-1H-indazol-3-yl}pyrimidin-4-amine] | 6.92
COc1cnc(-c2nn(Cc3c(F)ccc(OC)c3F)c3ccccc23)nc1N(Cc1c(F)ccc(OC)c1F)c1ccncc1 [Example 2-4-2, N-(2,6-difluoro-3-methoxybenzyl)-2-[1-(2,6-difluoro-3-methoxybenzyl)-1H-indazol-3-yl]-5-methoxy-N-(pyridin-4-yl)pyrimidin-4-amine] | 5.46
CCOc1cc(F)c(CN(c2ccncc2)c2nc(-c3nn(Cc4c(F)cc(OCC)cc4F)c4ccccc34)ncc2OC)c(F)c1 [Example 2-5-2, N-(4-ethoxy-2,6-difluorobenzyl)-2-[1-(4-ethoxy-2,6-difluorobenzyl)-1H-indazol-3-yl]-5-methoxy-N-(pyridin-4-yl)pyrimidin-4-amine] | 5.03
COc1cnc(-c2nn(Cc3c(F)cccc3F)c3ccccc23)nc1N(Cc1c(F)cccc1F)c1ccncc1 [Example 2-7-2, N-(2,6-difluorobenzyl)-2-[1-(2,6-difluorobenzyl)-1H-indazol-3-yl]-5-methoxy-N-(pyridin-4-yl)pyrimidin-4-amine] | 6.68
COc1cnc(-c2nn(Cc3ccc(SC(F)(F)F)cc3)c3ccccc23)nc1Nc1ccncc1 [Example 2-9-3, 5-methoxy-N-(pyridin-4-yl)-2-(1-{4-[(trifluoromethyl)sulfanyl]benzyl}-1H-indazol-3-yl)pyrimidin-4-amine] | 4.70
COc1cnc(-c2nn(Cc3ccccc3Br)c3ccccc23)nc1N(Cc1ccccc1Br)c1ccncc1 [Example 2-21-2, N-(2-bromobenzyl)-2-[1-(2-bromobenzyl)-1H-indazol-3-yl]-5-methoxy-N-(pyridin-4-yl)pyrimidin-4-amine] | 4.70
COc1cnc(-c2nn(Cc3ccc(CC(=O)O)cc3F)c3ccccc23)nc1Nc1ccncc1 [Example 2-22-1, [3-fluoro-4-({3-[5-methoxy-4-(pyridin-4-ylamino)pyrimidin-2-yl]-1H-indazol-1-yl}methyl)phenyl]acetic acid] | 5.49
COc1cnc(-c2nn(Cc3c(F)cc(OC(F)F)cc3F)c3ccccc23)nc1N(Cc1c(F)cc(OC(F)F)cc1F)c1ccncc1 [Example 2-39-2, N-[4-(difluoromethoxy)-2,6-difluorobenzyl]-2-{1-[4-(difluoromethoxy)-2,6-difluorobenzyl]-1H-indazol-3-yl}-5-methoxy-N-(pyridin-4-yl)pyrimidin-4-amine] | 5.16
COc1cc(C(F)(F)F)ccc1Cn1nc(-c2ncc(OC)c(Nc3ccncc3)n2)c2ccccc21 [Example 2-47-1, 5-methoxy-2-{1-[2-methoxy-4-(trifluoromethyl)benzyl]-1H-indazol-3-yl}-N-(pyridin-4-yl)pyrimidin-4-amine] | 5.62
Fc1ccccc1Cn1nc(-c2ncc(OCCc3nnn[nH]3)c(N(CCc3nnn[nH]3)c3ccncc3)n2)c2ccccc21 [Example 4-5-2, 2-[1-(2-fluorobenzyl)-1H-indazol-3-yl]-N-(pyridin-4-yl)-5-[2-(1H-tetrazol-5-yl)ethoxy]-N-[2-(1H-tetrazol-5-yl)ethyl]pyrimidin-4-amine] | 6.48
CCOc1cc(F)c(Cn2nc(-c3ncc(OCC4CN(C(=O)OC(C)(C)C)CCO4)c(Nc4ccncc4)n3)c3ccccc32)c(F)c1 (stereo not shown) [Example 4-11, tert-butyl 2-[({2-[1-(4-ethoxy-2,6-difluorobenzyl)-1H-indazol-3-yl]-4-(pyridin-4-ylamino)pyrimidin-5-yl}oxy)methyl] morpholine-4-carboxylate] | 7.62
CCOc1cc(F)c(Cn2nc(-c3ncc(OC[C@@H]4CCC(=O)N4)c(Nc4ccncc4)n3)c3ccccc32)c(F)c1 [Example 4-18, formic acid - (5S)-5-[({2-[1-(4-ethoxy-2,6-difluorobenzyl)-1H-indazol-3-yl]-4-(pyridin-4-ylamino)pyrimidin-5-yl}oxy)methyl] pyrrolidin-2-one (1:1)] | 7.92

The remaining molecules from weak to strong by pIC50, led by results:

pIC50 | SMILES
5.82 | COc1cnc(-c2nn(Cc3c(F)cccc3OC)c3ccccc23)nc1Nc1ccncc1 [Example 2-49-1, 2-[1-(2-fluoro-6-methoxybenzyl)-1H-indazol-3-yl]-5-methoxy-N-(pyridin-4-yl)pyrimidin-4-amine]
5.92 | COc1cnc(-c2nn(Cc3ccccc3Cl)c3ccccc23)nc1N(Cc1ccccc1Cl)c1ccncc1 [Example 2-10-2, N-(2-chlorobenzyl)-2-[1-(2-chlorobenzyl)-1H-indazol-3-yl]-5-methoxy-N-(pyridin-4-yl)pyrimidin-4-amine]
6.14 | CCOc1ccc(CN(c2ccncc2)c2nc(-c3nn(Cc4ccc(OCC)c(F)c4F)c4ccccc34)ncc2OC)c(F)c1F [Example 2-14-2, N-(4-ethoxy-2,3-difluorobenzyl)-2-[1-(4-ethoxy-2,3-difluorobenzyl)-1H-indazol-3-yl]-5-methoxy-N-(pyridin-4-yl)pyrimidin-4-amine]
6.37 | OCC1(COc2cnc(-c3nn(Cc4ccccc4F)c4ccccc34)nc2N(CC2(CO)COC2)c2ccncc2)COC1 [Example 4-2-2, (3-{[(2-[1-(2-fluorobenzyl)-1H-indazol-3-yl]-5-{[3-(hydroxymethyl)oxetan-3-yl]methoxy}pyrimidin-4-yl)(pyridin-4-yl)amino]methyl}oxetan-3-yl)methanol]
6.54 | COc1cnc(-c2nn(Cc3ccc(C)c(F)c3F)c3ccccc23)nc1N(Cc1ccc(C)c(F)c1F)c1ccncc1 [Example 2-8-2, N-(2,3-difluoro-4-methylbenzyl)-2-[1-(2,3-difluoro-4-methylbenzyl)-1H-indazol-3-yl]-5-methoxy-N-(pyridin-4-yl)pyrimidin-4-amine]
6.62 | COc1cnc(-c2nn(Cc3c(Cl)cccc3Cl)c3ccccc23)nc1N(Cc1c(Cl)cccc1Cl)c1ccncc1 [Example 2-9-2, N-(2,6-dichlorobenzyl)-2-[1-(2,6-dichlorobenzyl)-1H-indazol-3-yl]-5-methoxy-N-(pyridin-4-yl)pyrimidin-4-amine]
6.68 | CC(C)(C)OC(=O)NCCOCCOc1cnc(-c2nn(Cc3ccccc3F)c3ccccc23)nc1Nc1ccncc1 [Example 4-20, tert-butyl {2-[2-({2-[1-(2-fluorobenzyl)-1H-indazol-3-yl]-4-(pyridin-4-ylamino)pyrimidin-5-yl}oxy)ethoxy]ethyl}carbamate]
6.96 | COc1cnc(-c2nn(Cc3cccc(C#N)c3)c3ccccc23)nc1Nc1ccncc1 [Example 2-45-1, 3-({3-[5-methoxy-4-(pyridin-4-ylamino)pyrimidin-2-yl]-1H-indazol-1-yl}methyl)benzonitrile]
7.39 | COc1cnc(-c2nn(Cc3c(Cl)ccc([N+](=O)[O-])c3Cl)c3ccccc23)nc1Nc1ccncc1 [Example 2-44-1, 2-[1-(2,6-dichloro-3-nitrobenzyl)-1H-indazol-3-yl]-5-methoxy-N-(pyridin-4-yl)pyrimidin-4-amine]
7.60 | COc1cnc(-c2nn(Cc3cccc(-c4noc(C)n4)c3)c3ccccc23)nc1Nc1ccncc1 [Example 2-2-3, 5-methoxy-2-{1-[3-(5-methyl-1,2,4-oxadiazol-3-yl)benzyl]-1H-indazol-3-yl}-N-(pyridin-4-yl)pyrimidin-4-amine]
